# Experimental data taken from US8802209B2, “Multi-layered plastic polymeric container for the storage of pharmaceutical compositions” (Ceva Santé Animale, priority 2007, dated 2014).
# Assay: Analysis of additives in the multi-layered plastic container before and after sterilization by irradiation
# Assay type: physicochemical
# Conditions: After irradiation - dose of 25 kGy
# Procedure: A physico-chemical study of the outer layers made of polypropylene before and after irradiation at 25 kGy was performed.
row,Compound,Quantity of additives in polypropylene (ppm)
1,"CC(C)(C)c1cc(CCC(=O)OCC(COC(=O)CCc2cc(C(C)(C)C)c(O)c(C(C)(C)C)c2)(COC(=O)CCc2cc(C(C)(C)C)c(O)c(C(C)(C)C)c2)COC(=O)CCc2cc(C(C)(C)C)c(O)c(C(C)(C)C)c2)cc(C(C)(C)C)c1O [IRGANOX 1010, pentaerythrityl tetrakis(3-(3,5-di-tert-butyl-4-hydroxyphenyl)-propionate)]",Not detected
2,"CC(C)(C)c1cc(Cn2c(=O)n(Cc3cc(C(C)(C)C)c(O)c(C(C)(C)C)c3)c(=O)n(Cc3cc(C(C)(C)C)c(O)c(C(C)(C)C)c3)c2=O)cc(C(C)(C)C)c1O [IRGANOX 3114, 1,3,5-tris(3,5-di-tert-butyl-4-hydroxybenzyl)-s-triazine-2,4,6(1H,3H,5H)-trione]",Not detected
3,"CC(C)(C)c1ccc(OP(Oc2ccc(C(C)(C)C)cc2C(C)(C)C)Oc2ccc(C(C)(C)C)cc2C(C)(C)C)c(C(C)(C)C)c1 [IRGAPHOS 168, phosphite tris(2,4-bis(1,1-dimethylethyl)-phenyl)]",Not detected
